Values after ≈ are worked out from the molar mass of the structure shown.
Assays:
[1] = Insecticidal and acaricidal activity, general statements; format: in vivo; settings: diastereomers separated by recrystallization from hexane
[2] = test system: Pea aphids (Acyrthosiphon pisum Harris); assay: Spray test of difluoromethoxy esters on pea aphid (Test Example 6 B); format: in vivo
Protocol: (§1) Insecticidal activity of α-cyano-3-phenoxybenzyl 2-(4-difluoromethoxyphenyl)isovalerates on housefly, pea aphid and corn earworm
B. Pea Aphid: Pea aphids (Acyrthosiphon pisum Harris) were tested by placing about 100 aphids on broad bean plants. The plants were sprayed with dilutions of acetone solution of test compound into water containing an emulsifier and held in containers under laboratory conditions for 18 to 20 hours at which time the living aphids in the containers were counted. The tests were conducted employing several different dosage rates of each test compound.
(§2) In each instance, the toxicity of the compound of the invention was compared to that of a standard pesticide (Parathion), its relative toxicity then being expressed in terms of the relationship between the amount of compound of the invention and the amount of the standard pesticide required to produce the same percentage (50) of mortality in the test insects or acarine. By assigning the standard pesticide an arbitrary rating of 100, the toxicities of the compounds of the invention were expressed in terms of the toxicity indexes, which compares the toxicity of the compounds of the invention with that of the standard pesticide.

[3] = test system: tobacco cut worm (Spodoptera litura); assay: Insecticidal activity of difluoromethoxy esters on tobacco cut worm, leaf dip, 24 h (Test Example 7); format: in vivo; settings: foliar, read-out: LC50 (concentration required for 50% death)
From the text: Insecticidal activity of α-cyano-3-phenoxybenzyl 2-(4-difluoromethoxyphenyl)isovalerates on tobacco cut worm (Spodoptera litura)
Emulsifiable concentrates of difluoromethoxy ester Y and Y-rich difluoromethoxy ester formulated according to Preparation Example 12 and a 20% emulsifiable concentrate of common difluoromethoxy ester formulated in the same manner were each diluted with water to a predetermined concentration, and mixed with a spreader (Shin-Rino, a registered trademark of Nippon Noyaku Co.) of 3,000 times by weight based on the diluted liquor.
(§3) The dried leaves were placed in a plastic cup (diameter 10 cm, height 4 cm) at a rate of 2 leaves/cup, and the fourth instar larvae of tobacco cut worms were liberated therein. The dead and alive were examined after 24 hours and the values of LC50 (concentration required for 50% death) were obtained.
(§4) Experiments of three replications were carried out using 10 larvae per group.

[4] = test system: Corn earworm larvae (Heliothis zea Boddie); assay: Spray test of difluoromethoxy esters on corn earworm larvae (Test Example 6 C); format: in vivo
Protocol: as §1
C. Corn Earworm: Corn earworm larvae (Heliothis zea Boddie) were tested by spraying broad bean plants with dilutions of acetone solution of test compound into water containing an emulsifier. Immediately after spraying, 5 larvae were transferred to each plant and held for 44-46 hours, at which time the dead and moribund larvae were counted. The tests were conducted employing several different dosage rates for each test compound.
as §2

[5] = test system: Houseflies (Musca domestica Linne); assay: Spray test of difluoromethoxy esters on housefly (Test Example 6 A); format: in vivo
Protocol: as §1
A. Housefly: Houseflies (Musca domestica Linne) were tested by placing 50 4- to 5-day old houseflies into spray cages and spraying with 0.6 ml of a solution of test compound. After spraying, the flies were anesthetized with CO2 and transferred to a recovery cage containing a milk pad for food. The cages were held for 18-20 hours after which mortality counts were made. Both dead and moribund were counted. The tests were conducted employing several different dosage rates of each test compound.
as §2

[6] = test system: housefly (Musca domestica); assay: Insecticidal activity of methoxy and ethoxy esters on housefly, topical application, 24 h (Test Example 8); format: in vivo; settings: CSMA-strain female adults, 0.5 μl to ventral thorax
Protocol: Insecticidal activity of S phenylisovalerates (methoxy and ethoxy esters) on housefly (Musca domestica)
(§5) Each of S phenylisovalerate Y's and Y-rich S phenylisovalerates obtained in Examples 21 to 24 and common racemates was diluted with acetone to a pre-determined concentration, and 0.5 μl of the solution was applied to the ventral thorax of CSMA-strain housefly female adults by means of a microsyringe. The adults were then liberated in a plastic cup (diameter 11 cm) wherein a bait (3% sugar water) was placed. The dead and alive were examined after 24 hours, and the values of LD50 were obtained.

[7] = reported in literature; cited from earlier work
[8] = test system: housefly (Musca domestica); assay: Insecticidal activity of fenvalerates on housefly, topical application, 24 h (Test Example 2); format: in vivo; settings: for Relative Efficacy: Activity of Fenvalerate (common product) was taken as 100; for LD50: CSMA-strain female adults, 0.5 μl to ventral thorax, 24 hours
Protocol: Insecticidal activity of fenvalerates on housefly (Musca domestica)
as §5, with “pesticide used” for “of S phenylisovalerate Y's and Y-rich S phenylisovalerates obtained”, “4” for “21 to 24”, “5” for “common racemates”

[9] = test system: tobacco cut worm (Spodoptera litura); assay: Insecticidal activity of fenvalerates on tobacco cut worm, leaf dip, 24 h (Test Example 1); format: in vivo; settings: for Relative Efficacy: Activity of Fenvalerate (common product) was taken as 100; for LC50 (concentration required for 50% death) / LC50: fourth instar larvae, 24 hours, 20% emulsifiable concentrate diluted; for LC50 (concentration required for 50% death): 1440 min; for LC50: Spodoptera litura, foliar, 24 h, read-out: LC50 (concentration required for 50% death)
From the text: Insecticidal activity of fenvalerates on tobacco cut worm (Spodoptera litura)
Fenvalerate Y obtained in Example 4, fenvalerate Y-rich fenvalerate obtained in Examples 5 and 6 and common fenvalerate were formulated into a 20% emulsifiable concentrate as usual (Composition: above pesticide 20%; xylene 70%; and Sorpol 3005X (a registered trademark of Toho Kagaku Co.) 10%). These emulsifiable concentrates were each diluted with water to a pre-determined concentration, and mixed with a spreader (Shin-Rino, a registered trademark of Nippon Noyaku Co.) of 3,000 times by weight based on the diluted liquor.
as §3, §4

[10] = Solubility, general statement; format: physicochemical; settings: compared with fenvalerate Aα
[11] = Parathion = 100, 50% mortality, 18 to 20 hours, * High Knockdown
[12] = fourth instar larvae, 24 hours, emulsifiable concentrate diluted
[13] = Parathion = 100, 50% mortality, 44-46 hours, * High Knockdown
[14] = Parathion = 100, 50% mortality, 18-20 hours, * High Knockdown

## C#CC(OC(=O)C(c1ccc(Cl)cc1)C(C)C)c1cccc(Oc2ccccc2)c1 (stereo not drawn) [diastereomer having a melting point of 87° to 88° C., α-ethynyl-3-phenoxybenzyl 2-(4-chlorophenyl)isovalerate]
[1]
  insecticidal activity: very weak insecticidal activity

## CC(C)C(C(=O)OC(C#N)c1cccc(Oc2ccccc2)c1)c1ccc(OC(F)F)cc1 (racemic) [Common Difluoromethoxy Ester, α-cyano-3-phenoxybenzyl 2-(4-difluoromethoxyphenyl)isovalerate]
[2]; [11]
  Toxicity Index: 582
[3]; [12]
  LC50: 23 µg/mL (≈ 50.9 µM)
[4]; [13]
  Toxicity Index: 773
[5]; [14]
  Toxicity Index: 219

## CCOc1ccc([C@@H](C(=O)O[C@H](C#N)c2cccc(Oc3ccccc3)c2)C(C)C)cc1 (relative stereo) [Ethoxy Ester Y, α-cyano-3-phenoxybenzyl 2-(4-ethoxyphenyl)isovalerate]
[6]
  LD50: 0.28 μg/housefly

## CC(C)[C@H](C(=O)O[C@H](C#N)c1cccc(Oc2ccccc2)c1)c1ccc(Cl)cc1 [fenvalerate Aα, (S)-α-cyano-3-phenoxybenzyl (S)-2-(4-substituted-phenyl)isovalerate]
[7]
  insecticidal and acaricidal activity: the most active stereoisomer of the four

## CC(C)C(C(=O)OC(C#N)c1cccc(Oc2ccccc2)c1)c1ccc(Cl)cc1 (stereo not drawn) [Fenvalerate (common product), α-Cyano-3-phenoxybenzyl 2-(4-chlorophenyl)isovalerate, reference compound]
[8]
  Relative Efficacy: 100
  LD50: 0.031 μg/housefly
[9]
  Relative Efficacy: 100
  LC50 (concentration required for 50% death): 7.4 ppm

## CC(C)C(C(=O)OC(C#N)c1cccc(Oc2ccccc2)c1)c1ccc(Cl)cc1 (stereo not shown) [Example 5]
[8]
  Relative Efficacy: 172
  LD50: 0.018 μg/housefly
[9]
  Relative Efficacy: 172
  LC50: 4.3 µg/mL (≈ 10.2 µM)

## COc1ccc(C(C(=O)OC(C#N)c2cccc(Oc3ccccc3)c2)C(C)C)cc1 (stereo not drawn) [Y-Rich Methoxy Ester, α-cyano-3-phenoxybenzyl 2-(4-methoxyphenyl)isovalerate]
[6]
  LD50: 0.20 μg/housefly

## COc1ccc(C(C(=O)OC(C#N)c2cccc(Oc3ccccc3)c2)C(C)C)cc1 (racemic) [Common Methoxy Ester (racemate), α-cyano-3-phenoxybenzyl 2-(4-methoxyphenyl)isovalerate]
[6]
  LD50: 0.35 μg/housefly

## CCOc1ccc(C(C(=O)OC(C#N)c2cccc(Oc3ccccc3)c2)C(C)C)cc1 (stereo not drawn) [Y-Rich Ethoxy Ester, α-cyano-3-phenoxybenzyl 2-(4-ethoxyphenyl)isovalerate]
[6]
  LD50: 0.46 μg/housefly

## CC(C)[C@H](C(=O)O[C@H](C#N)c1cccc(Oc2ccccc2)c1)c1ccc(OC(F)F)cc1 (relative stereo) [Difluoromethoxy Ester Y, α-cyano-3-phenoxybenzyl 2-(4-difluoromethoxyphenyl)isovalerate]
[3]; 24 h
  LC50: 12 µg/mL (≈ 26.6 µM)

## CC(C)C(C(=O)OC(C#N)c1cccc(Oc2ccccc2)c1)c1ccc(Cl)cc1 (stereo not shown) [Example 6]
[9]
  Relative Efficacy: 125
  LC50 (concentration required for 50% death): 5.9 ppm

## CCOc1ccc(C(C(=O)OC(C#N)c2cccc(Oc3ccccc3)c2)C(C)C)cc1 (racemic) [Common Ethoxy Ester (racemate), α-cyano-3-phenoxybenzyl 2-(4-ethoxyphenyl)isovalerate]
[6]
  LD50: 0.54 μg/housefly

## C#CC(OC(=O)C(c1ccc(Cl)cc1)C(C)C)c1cccc(Oc2ccccc2)c1 (stereo not drawn) [diastereomer (m.p. 51°-52° C.), α-ethynyl-3-phenoxybenzyl 2-(4-chlorophenyl)isovalerate]
[1]
  insecticidal activity: higher insecticidal activity

## CC(C)[C@H](C(=O)O[C@H](C#N)c1cccc(Oc2ccccc2)c1)c1ccc(Cl)cc1 (relative stereo) [fenvalerate Y]
[10]
  solubilities: greater than those of fenvalerate Aα
[7]
  insecticidal and acaricidal activity: highly active pesticide

## COc1ccc([C@@H](C(=O)O[C@H](C#N)c2cccc(Oc3ccccc3)c2)C(C)C)cc1 (relative stereo) [Methoxy Ester Y, α-cyano-3-phenoxybenzyl 2-(4-methoxyphenyl)isovalerate]
[6]
  LD50: 0.17 μg/housefly

## CC(C)C(C(=O)OC(C#N)c1cccc(Oc2ccccc2)c1)c1ccc(OC(F)F)cc1 (stereo not drawn) [Y-Rich Difluoromethoxy Ester, α-cyano-3-phenoxybenzyl 2-(4-difluoromethoxyphenyl)isovalerate]
[3]; [12]
  LC50: 14 µg/mL (≈ 31 µM)

## CC(C)[C@H](C(=O)O[C@H](C#N)c1cccc(Oc2ccccc2)c1)c1ccc(Cl)cc1 (relative stereo) [Example 4]
[8]
  Relative Efficacy: 207
  LD50: 0.015 μg/housefly
[9]
  Relative Efficacy: 195
  LC50: 3.8 µg/mL (≈ 9.05 µM)

## CC(C)[C@H](C(=O)O[C@H](C#N)c1cccc(Oc2ccccc2)c1)c1ccc(OC(F)F)cc1 (relative stereo) [Same, Y Isomer Pair, α-cyano-3-phenoxybenzyl 2-(4-difluoromethoxyphenyl)isovalerate]
[2]; in vivo
  Toxicity Index: 1273
[4]; in vivo
  Toxicity Index: 1544
[5]; in vivo
  Toxicity Index: 1100

## CC(C)[C@H](C(=O)O[C@@H](C#N)c1cccc(Oc2ccccc2)c1)c1ccc(OC(F)F)cc1 (relative stereo) [Same, X Isomer Pair, α-cyano-3-phenoxybenzyl 2-(4-difluoromethoxyphenyl)isovalerate]
[2]; [11]
  Toxicity Index: 45
[4]; [13]
  Toxicity Index: 106
[5]; [14]
  Toxicity Index: 47

From patent US4307036A, “Method for preparing a mixture of stereoisomers of α-cyano-3-phenoxybenzyl 2-(4-substituted-phenyl)isovalerates” (Sumitomo Chemical Company, Limited, priority 1978, dated 1981)
